Reference: patent US20260355331A1, “CEREBLON DEGRADER CONJUGATES, AND USES THEREOF” (GENENTECH, INC., priority 2022, published 2026)

Tests used:
[1] = stability of cDLI under conjugation conditions; type: physicochemical; conditions: pH 8.5, 3 and 10 equivalents, 3 hours and overnight; LC/MS
[2] = reductive cleavage / release of lenalidomide in a model study; type: in vitro ADME; conditions: reduction
Source text: The nitro group of para-nitrobenzyloxymethyl lenalidomide cDLI-7 was reduced to amine in a model study. […] The disulfide group of para-nitropyridyl disulfidemethyl lenalidomide cDLI-8 was reduced in a model study.

[3] = system: proteases; assay: protease cleavage of cDAC made with cDLI; type: in vitro ADME; conditions: presence of proteases; cDAC of cDLI-6 variants
[4] = cDLI stability in whole blood; type: in vitro ADME
[5] = system: KPL-4 cells (HER2+); assay: cell proliferation assay (CellTiter-Glo), KPL-4; type: cell-based; conditions: KPL4, 120 h; cereblon degrader compound, 5 days; read-out: IC50 anti-proliferative
Source text: (§1) The CellTiter-Glo® Luminescent Cell Viability Assay is a commercially available (Promega Corp., Madison, WI), homogeneous assay method based on the recombinant expression of Coleoptera luciferase (U.S. Pat. Nos. 5,583,024; 5,674,713; 5,700,670). This cell proliferation assay determines the number of viable cells in culture based on quantitation of the ATP present, an indicator of metabolically active cells (Crouch et al (1993) J. Immunol. Meth. 160:81-88; U.S. Pat. No. 6,602,677). The CellTiter-Glo® Assay was conducted in 96 well format, making it amenable to automated high-throughput screening (HTS) (Cree et al (1995) AntiCancer Drugs 6:398-404). […] Data can be recorded by luminometer or CCD camera imaging device. The luminescence output is expressed as relative light units (RLU). […]
(§2) Efficacy of the cDAC was measured by a cell proliferation assay employing the following protocol ([…] GLO™ Luminescent Cell Viability Assay, Promega Corp. Technical Bulletin TB288; Mendoza et al. (2002) Cancer Res. 62:5485-5488): • 1. […] The plate was incubated at room temperature for 5 minutes to stabilize the luminescence signal. • 8. Luminescence was recorded and reported in graphs as % activity where RLU (relative luminescence units) was normalized to controls (no antibody control minus no cell control). […]

[6] = system: SK-BR-3 cells (HER2+); assay: cell proliferation assay (CellTiter-Glo), SK-BR-3; type: cell-based; conditions: Homo sapiens, SK-BR-3, 120 h; cereblon degrader compound, 5 days; read-out: IC50 anti-proliferative
Source text: as §1, §2

[7] = release of lenalidomide and hydrolysis of sulfonyl-thio cDLI; type: in vitro ADME; conditions: with and without methyl adjacent to the glutarimide nitrogen

CC(C)(C)OC(=O)Nc1cccc2c1CN(C1CCC(=O)N(C(=O)OCC(C)(C)SS(C)(=O)=O)C1=O)C2=O (stereo not drawn) [cDLI-1, 2-methyl-2-((methylsulfonyl)thio)propyl 3-(4-((tert-butoxycarbonyl)amino)-1-oxoisoindolin-2-yl)-2,6-dioxopiperidine-1-carboxylate]
stability under conjugation conditions (in words) [1]: too unstable under these conditions for conjugation

O=C1CCC(N2Cc3ccccc3C2=O)C(=O)N1COCc1ccc([N+](=O)[O-])cc1 (stereo not drawn) [cDLI-7, 1-(((4-nitrobenzyl)oxy)methyl)-3-(1-oxoisoindolin-2-yl)piperidine-2,6-dione]
cleavage to release lenalidomide (in words) [2]: No cleavage of the para-aminobenzyloxy group was observed

O=C1CCC(N2Cc3ccccc3C2=O)C(=O)N1CSSc1ccc([N+](=O)[O-])cn1 (stereo not drawn) [cDLI-8, 1-(((5-nitropyridin-2-yl)disulfaneyl)methyl)-3-(1-oxoisoindolin-2-yl)piperidine-2,6-dione]
cleavage to release lenalidomide (in words) [2]: No cleavage of the disulfide group was observed

CC(C)(CSS(C)(=O)=O)OC(=O)OCN1C(=O)CCC(N2Cc3ccccc3C2=O)C1=O (stereo not drawn) [cDLI-10, S-(2-((((2,6-dioxo-3-(1-oxoisoindolin-2-yl)piperidin-1-yl)methoxy)carbonyl)oxy)-2-methylpropyl) methanesulfonothioate]
stability under conjugation conditions (in words) [1]: Hydrolysis of the carbonate bond was observed

6-(2,5-dioxo-2,5-dihydro-1H-pyrrol-1-yl)-N-((2S)-1-(((2S)-1-((4-((2,6-dioxo-3-(1-oxoisoindolin-2-yl)piperidin-1-yl)methyl)phenyl)amino)-1-oxopropan-2-yl)amino)-3-methyl-1-oxobutan-2-yl)hexanamide [cDLI-6]
cleavage by proteases (in words) [3]: failed to cleave in the presence of proteases

O=C1C=CC(=O)N1CCSN1C(=O)CCC(N2Cc3ccccc3C2=O)C1=O (stereo not drawn) [cDLI-4, 1-((2-(2,5-dioxo-2,5-dihydro-1H-pyrrol-1-yl)ethyl)thio)-3-(1-oxoisoindolin-2-yl)piperidine-2,6-dione]
stability in whole blood (in words) [4]: not stable in whole blood

CC(CN1C(=O)C=CC1=O)SN1C(=O)CCC(N2Cc3ccccc3C2=O)C1=O (stereo not drawn) [cDLI-5, 1-((1-(2,5-dioxo-2,5-dihydro-1H-pyrrol-1-yl)propan-2-yl)thio)-3-(1-oxoisoindolin-2-yl)piperidine-2,6-dione]
stability in whole blood (in words) [4]: not stable in whole blood

Cn1cc2c3c(c[nH]c3c1=O)CN(c1ncc(F)cc1F)c1cc(C(=O)NCCCCCCCNc3cccc4c3CN(C3CCC(=O)NC3=O)C4=O)c(CS(C)(=O)=O)cc1-2 (stereo not drawn) [cD-5, 4-(3,5-difluoropyridin-2-yl)-N-(7-((2-(2,6-dioxopiperidin-3-yl)-1-oxoisoindolin-4-yl)amino)heptyl)-10-methyl-7-((methylsulfonyl)methyl)-11-oxo-3,4,10,11-tetrahydro-1H-1,4,10-triazadibenzo[cd,f]azulene-6-carboxamide]
IC50 [5]: 0.65 nM
IC50 [6]: 0.41 nM

CC(OC(=O)OCN1C(=O)CCC(N2Cc3ccccc3C2=O)C1=O)C(C)SS(C)(=O)=O (stereo not drawn) [cDLI-9, S-(3-((((2,6-dioxo-3-(1-oxoisoindolin-2-yl)piperidin-1-yl)methoxy)carbonyl)oxy)butan-2-yl)methanesulfonothioate]
stability under conjugation conditions (in words) [1]: Hydrolysis of the carbonate bond was observed
release of lenalidomide (in words) [7]: cleaved to release detectable lenalidomide
stability (in words) [7]: not stable, generating hydrolysis products
